Assay results published in a compilation of properties of binary mixtures (doi:10.1021/acs.jpcc.9b07923).

Test: xn = mol fraction of the nth substance listed
Settings: 100 kPa

## Fc1ccccn1 + Fc1cccc[nH+]1.O=S(=O)([O-])C(F)(F)F
242.2 K, x1 = 0.95
  electrical conductivity: 0.091 S/m
242.4 K, x1 = 0.5
  electrical conductivity: 0.0018 S/m
242.6 K, x1 = 0.86
  electrical conductivity: 0.075 S/m
244.9 K, x2 = 0.01
  electrical conductivity: 0.083 S/m
247.7 K, x1 = 0.9
  electrical conductivity: 0.109 S/m
251.9 K, x1 = 0.95
  electrical conductivity: 0.118 S/m
252.3 K, x1 = 0.86
  electrical conductivity: 0.113 S/m
252.8 K, x1 = 0.5
  electrical conductivity: 0.0037 S/m
254.7 K, x2 = 0.01
  electrical conductivity: 0.102 S/m
257.7 K, x1 = 0.9
  electrical conductivity: 0.168 S/m
262 K, x1 = 0.95
  electrical conductivity: 0.353 S/m
262.5 K, x2 = 0.01
  electrical conductivity: 0.12 S/m
262.6 K, x1 = 0.9
  electrical conductivity: 0.201 S/m
262.7 K, x1 = 0.86
  electrical conductivity: 0.161 S/m
267.6 K, x1 = 0.86
  electrical conductivity: 0.187 S/m
267.6 K, x1 = 0.9
  electrical conductivity: 0.24 S/m
271.8 K, x1 = 0.95
  electrical conductivity: 0.445 S/m
272.4 K, x1 = 0.9
  electrical conductivity: 0.279 S/m
272.5 K, x1 = 0.86
  electrical conductivity: 0.229 S/m
272.6 K, x2 = 0.01
  electrical conductivity: 0.137 S/m
272.7 K, x1 = 0.5
  electrical conductivity: 0.0132 S/m
277.5 K, x1 = 0.9
  electrical conductivity: 0.532 S/m
277.9 K, x1 = 0.86
  electrical conductivity: 0.295 S/m
282.6 K, x2 = 0.01
  electrical conductivity: 0.156 S/m
282.9 K, x1 = 0.86
  electrical conductivity: 0.408 S/m
287.4 K, x1 = 0.5
  electrical conductivity: 0.0369 S/m
287.7 K, x1 = 0.9
  electrical conductivity: 0.608 S/m
287.7 K, x2 = 0.01
  electrical conductivity: 0.161 S/m
292.1 K, x1 = 0.95
  electrical conductivity: 0.596 S/m
292.2 K, x1 = 0.5
  electrical conductivity: 0.0485 S/m
292.6 K, x1 = 0.86
  electrical conductivity: 0.658 S/m
296.9 K, x1 = 0.95
  electrical conductivity: 0.644 S/m
297.4 K, x1 = 0.5
  electrical conductivity: 0.0902 S/m
297.6 K, x1 = 0.86
  electrical conductivity: 0.711 S/m
297.6 K, x2 = 0.01
  electrical conductivity: 0.189 S/m
302.3 K, x1 = 0.5
  electrical conductivity: 0.185 S/m
302.5 K, x2 = 0.01
  electrical conductivity: 0.204 S/m
303 K, x1 = 0.86
  electrical conductivity: 0.769 S/m
303.3 K, x1 = 0.95
  electrical conductivity: 0.664 S/m
